Test results taken from US5700780A, “Antiviral peptide derivatives having a 2-oxoalkyl amino acid side chain” (Boehringer Ingelheim (Canada), Ltd., priority 1989, dated 1997).
Where a SMILES comes first, the peptide text is derived from it.

biological target: HSV-1 ribonucleotide reductase (Human herpesvirus 1, UniProt P08543); experiment: biochemical
From the text: Inhibition of Herpes Simplex Virus (HSV, type 1) Ribonucleotide Reductase
HSV-1 ribonucleotide reductase (partially purified) was obtained from quiescent BHK-21/C13 cells infected with strain F HSV-1 virus at 10 plaque forming units/cell as described by E. A. Cohen et al., J. Gen. Virol., 66, 733 (1985).
The procedure described by P. Gaudreau et al., J. Biol, Chem., 262, 12413 (1987), was employed. […] The number of units of the enzyme preparation used in each assay was constant, based on the specific activity of the enzyme preparation.

Chain of HSV-1 ribonucleotide reductase (P08543 whole entry): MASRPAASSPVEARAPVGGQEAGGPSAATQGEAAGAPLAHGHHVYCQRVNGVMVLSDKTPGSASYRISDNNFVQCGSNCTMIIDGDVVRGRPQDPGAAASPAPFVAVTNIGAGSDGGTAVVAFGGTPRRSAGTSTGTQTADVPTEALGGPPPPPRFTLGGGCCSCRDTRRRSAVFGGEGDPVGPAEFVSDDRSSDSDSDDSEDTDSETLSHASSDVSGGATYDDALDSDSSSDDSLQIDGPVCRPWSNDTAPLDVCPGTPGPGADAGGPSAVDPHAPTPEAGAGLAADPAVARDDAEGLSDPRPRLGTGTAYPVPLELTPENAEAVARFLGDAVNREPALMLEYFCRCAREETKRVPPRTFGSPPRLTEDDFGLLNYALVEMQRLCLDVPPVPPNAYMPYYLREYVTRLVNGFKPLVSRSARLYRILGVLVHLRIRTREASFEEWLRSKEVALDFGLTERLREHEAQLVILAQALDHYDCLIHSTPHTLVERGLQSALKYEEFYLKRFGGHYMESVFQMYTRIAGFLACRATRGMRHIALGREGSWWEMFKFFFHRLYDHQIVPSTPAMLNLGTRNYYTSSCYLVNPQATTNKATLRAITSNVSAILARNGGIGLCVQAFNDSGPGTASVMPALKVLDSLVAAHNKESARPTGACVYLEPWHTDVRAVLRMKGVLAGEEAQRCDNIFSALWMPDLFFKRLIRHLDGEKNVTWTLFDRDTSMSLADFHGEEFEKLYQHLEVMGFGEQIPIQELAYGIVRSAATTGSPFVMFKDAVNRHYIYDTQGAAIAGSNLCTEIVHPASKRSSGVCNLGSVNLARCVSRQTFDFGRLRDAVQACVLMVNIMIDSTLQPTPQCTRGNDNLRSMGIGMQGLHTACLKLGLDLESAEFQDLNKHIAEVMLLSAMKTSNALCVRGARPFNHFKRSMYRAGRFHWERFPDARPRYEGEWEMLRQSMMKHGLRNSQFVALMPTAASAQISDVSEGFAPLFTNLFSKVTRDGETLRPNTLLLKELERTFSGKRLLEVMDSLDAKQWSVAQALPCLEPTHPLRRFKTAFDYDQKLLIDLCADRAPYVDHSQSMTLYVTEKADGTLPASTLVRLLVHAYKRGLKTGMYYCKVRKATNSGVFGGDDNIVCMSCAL

SMILES | IC50 [µM]
CCCCCCCC(=O)C[C@H](NC(=O)[C@@H](NC(=O)C(CC)CC)[C@@H](C)CC)C(=O)N[C@@H](CC(=O)O)C(=O)N[C@@H](CC(C)C)C(=O)O [2-Ethylbutanoyl-Ile--NHCH(2-oxononyl)-CO--Asp--Leu--OH] | 24
CCCCCCCCCCCC(=O)C[C@H](NC(=O)[C@@H](NC(=O)C(CC)CC)[C@@H](C)CC)C(=O)N[C@@H](CC(=O)O)C(=O)N[C@@H](CC(C)C)C(=O)O [2-Ethylbutanoyl-Ile--NHCH(2-oxotridecyl)-CO--Asp--Leu--OH] | 8.5
CC[C@H](C)[C@H](NC(=O)[C@H](C(C)C)N(C)C(=O)CCc1ccccc1)C(=O)N[C@@H](CC(=O)C1CCCC1)C(=O)N[C@@H](CC(=O)O)C(=O)N[C@@H](CC(C)C)C(=O)O [PhCH2 CH2 CO--N--Me--Val--Ile--NHCH(2-cyclopentyl-2-oxoethyl)-CO--Asp--Leu--OH] (HELM PEPTIDE1{[O=C(CCc1ccccc1)[*:2]].[meV].I.[O=C(C[C@H](N[*:1])C(=O)[*:2])C1CCCC1].D.L}$$$$V2.0) | 0.18
CC[C@H](C)[C@H](NC(=O)[C@H](C(C)C)N(C)C(=O)CCc1ccccc1)C(=O)N[C@@H](CC(C)=O)C(=O)N[C@@H](CC(=O)O)C(=O)N[C@@H](CC(C)C)C(=O)O [PhCH2 CH2 CO--N--Me--Val--Ile--NHCH(2-oxopropyl)-CO--Asp--Leu--OH] (HELM PEPTIDE1{[O=C(CCc1ccccc1)[*:2]].[meV].I.[CC(=O)C[C@H](N[*:1])C(=O)[*:2]].D.L}$$$$V2.0) | 1.3
CCCCCC(=O)C[C@H](NC(=O)[C@@H](NC(=O)C(CC)CC)C(C)(C)C)C(=O)N[C@@H](CC(=O)O)C(=O)N[C@@H](CC(C)C)C(=O)O [2-Ethylbutanoyl-Tbg--NHCH(2-oxoheptyl)-CO--Asp--Leu--OH] | 7.5
CCCCCCCC(=O)C[C@H](NC(=O)[C@@H](NC(=O)C(CC)CC)C(C)(C)C)C(=O)N[C@H](C(=O)N[C@@H](CC(C)C)C(=O)O)C(C)(C)C(=O)O [2-Ethylbutanoyl-Tbg--NHCH(2-oxononyl)-CO--NHCH[C(CH3)2 COOH]--CO--Leu--OH] | 1.2
CCCCCCCC(=O)C[C@H](NC(=O)[C@@H](NC(=O)C(CC)CC)C(C)(C)C)C(=O)N[C@@H](CC(=O)O)C(=O)N[C@@H](CC(C)C)C(=O)O [2-Ethylbutanoyl-Tbg--NHCH(2-oxononyl)-CO--Asp--Leu--OH] | 4.5
CCCCCCCCCCCC(=O)C[C@H](NC(=O)[C@@H](NC(=O)[C@H](C(C)C)N(C)C(=O)CCc1ccccc1)[C@@H](C)CC)C(=O)N[C@@H](CC(=O)O)C(=O)N[C@@H](CC(C)C)C(N)=O [PhCH2 CH2 CO--N--Me--Val--Ile--NHCH(2-oxotridecyl)-CO--Asp--Leu--NH2] (HELM PEPTIDE1{[O=C(CCc1ccccc1)[*:2]].[meV].I.[CCCCCCCCCCCC(=O)C[C@H](N[*:1])C(=O)[*:2]].D.L.[am]}$$$$V2.0) | 6.3
CCC(CC)C(=O)N[C@H](C(=O)N[C@@H](CC(=O)C1CCCC1)C(=O)N[C@@H](CC(=O)O)C(=O)NCCC(C)(C)C)C(C)(C)C [2-Ethylbutanoyl-Tbg--NHCH(2-cyclopentyl-2-oxoethyl)-CO--Asp--NHCH2 CH2 C(CH3)3] | 23
CCCCCCCC(=O)C[C@H](NC(=O)[C@@H](NC(=O)[C@H](C(C)C)N(C)C(=O)CCc1ccccc1)[C@@H](C)CC)C(=O)N[C@@H](CC(=O)O)C(=O)N[C@@H](CC(C)C)C(=O)O [PhCH2 CH2 CO--N--Me--Val--Ile--NHCH(2-oxononyl)-CO--Asp--Leu--OH] (HELM PEPTIDE1{[O=C(CCc1ccccc1)[*:2]].[meV].I.[CCCCCCCC(=O)C[C@H](N[*:1])C(=O)[*:2]].D.L}$$$$V2.0) | 0.42
